Where two headings read alike, the source gives them in different places.

For assay [1], the target named is CA VA (Homo sapiens, UniProt P35218). The assay is described as follows: Fluorescence-based thermal shift assay (FTSA).
Experimental: (§1) This assay quantifies protein melting temperatures (Tm) at various concentrations of the added compound. Protein unfolding is monitored by detecting the fluorescence of the solvatochromic dye 8-anilino-1-naphtalensulfonate (ANS), whose fluorescence increases upon protein unfolding [15–17]. Dependence of the protein Tm on ligand concentration was used to determine the dissociation constant Kd. In this study, FTSA samples contained 5–20 μM protein, 50 μM ANS, 0–300 μM compound in 50 mM sodium phosphate or 25 mM Hepes buffer containing 50 mM NaCl, pH 7.5, and 2% (v/v) DMSO. Experiments were performed in Corbett Rotor-Gene 6000 instrument. […] The heating rate of 1°/min was applied.
(§2) The experiments were repeated at least twice, and averages are listed.
Assay [2] deals with CA XIII (Homo sapiens, UniProt Q8N1Q1). Description: Fluorescence-based thermal shift assay (FTSA).
Experimental: as §1, §2
For assay [3], the target named is CA IX (Homo sapiens, UniProt Q16790). Description: Fluorescence-based thermal shift assay (FTSA).
Experimental: as §1, §2
The target in assay [4] is CA VB (Homo sapiens, UniProt Q9Y2D0). The assay is described as follows: Fluorescence-based thermal shift assay (FTSA).
CA VB, sequence (Q9Y2D0 34-317): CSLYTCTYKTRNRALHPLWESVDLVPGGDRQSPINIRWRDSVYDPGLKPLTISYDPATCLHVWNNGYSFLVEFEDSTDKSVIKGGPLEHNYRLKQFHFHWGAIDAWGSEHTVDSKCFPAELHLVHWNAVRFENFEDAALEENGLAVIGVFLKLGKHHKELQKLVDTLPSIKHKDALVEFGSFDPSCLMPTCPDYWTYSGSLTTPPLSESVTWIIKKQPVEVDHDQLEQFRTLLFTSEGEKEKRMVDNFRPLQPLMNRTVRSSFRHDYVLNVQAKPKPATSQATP
Experimental: as §1, §2
The target of assay [5] is CA I (Homo sapiens, UniProt P00915). The assay is described as follows: Fluorescence-based thermal shift assay (FTSA).
CA I, sequence (P00915 whole entry, canonical isoform): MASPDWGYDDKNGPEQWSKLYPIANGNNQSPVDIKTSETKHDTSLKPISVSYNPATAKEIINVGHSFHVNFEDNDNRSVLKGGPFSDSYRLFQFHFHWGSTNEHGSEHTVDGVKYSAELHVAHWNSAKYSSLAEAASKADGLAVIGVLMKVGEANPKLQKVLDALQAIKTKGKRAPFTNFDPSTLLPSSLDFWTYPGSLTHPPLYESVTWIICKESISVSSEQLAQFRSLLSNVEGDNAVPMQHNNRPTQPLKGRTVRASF
Experimental: as §1, §2
For assay [6], the target named is human CA isoforms. The assay is described as follows: FTSA, summary over several CA isoforms. It counts as binding. The conditions noted are these: for Kd: FTSA.
Experimental: as §1, §2
In assay [7] the target is CA VI (Homo sapiens, UniProt P23280). Description: Fluorescence-based thermal shift assay (FTSA).
CA VI, sequence (P23280 18-308): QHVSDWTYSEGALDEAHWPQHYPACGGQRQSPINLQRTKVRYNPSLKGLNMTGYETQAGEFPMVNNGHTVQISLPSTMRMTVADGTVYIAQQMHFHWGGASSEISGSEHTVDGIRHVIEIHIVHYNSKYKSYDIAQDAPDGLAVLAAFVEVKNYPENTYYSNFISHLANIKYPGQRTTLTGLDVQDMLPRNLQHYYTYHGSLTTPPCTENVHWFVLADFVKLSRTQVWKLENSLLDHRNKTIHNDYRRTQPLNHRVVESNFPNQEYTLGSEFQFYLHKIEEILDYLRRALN
Experimental: as §1, §2
In assay [8] the target is CA XIV (Homo sapiens, UniProt Q9ULX7). Description: Fluorescence-based thermal shift assay (FTSA).
CA XIV, sequence (Q9ULX7 16-337): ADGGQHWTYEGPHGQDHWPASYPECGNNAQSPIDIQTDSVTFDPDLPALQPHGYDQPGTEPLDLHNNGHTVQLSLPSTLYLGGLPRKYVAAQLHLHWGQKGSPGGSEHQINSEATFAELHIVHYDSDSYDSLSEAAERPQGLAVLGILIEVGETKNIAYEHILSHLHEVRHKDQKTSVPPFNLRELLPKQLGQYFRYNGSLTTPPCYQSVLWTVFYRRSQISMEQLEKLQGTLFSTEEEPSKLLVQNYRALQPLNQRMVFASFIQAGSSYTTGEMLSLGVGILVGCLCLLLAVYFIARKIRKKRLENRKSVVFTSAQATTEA
Experimental: as §1, §2
The target of assay [9] is CA VII (Homo sapiens, UniProt P43166). The assay is described as follows: Fluorescence-based thermal shift assay (FTSA).
CA VII, sequence (P43166 whole entry): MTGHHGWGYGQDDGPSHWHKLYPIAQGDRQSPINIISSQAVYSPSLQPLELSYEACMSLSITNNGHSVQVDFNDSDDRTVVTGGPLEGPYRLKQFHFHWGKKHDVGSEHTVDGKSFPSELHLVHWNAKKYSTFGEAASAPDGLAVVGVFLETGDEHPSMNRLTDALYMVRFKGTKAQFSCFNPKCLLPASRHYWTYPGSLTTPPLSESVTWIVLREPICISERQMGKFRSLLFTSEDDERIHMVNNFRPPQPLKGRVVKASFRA
Experimental: as §1, §2
The target in assay [10] is T1, CA II (Homo sapiens, UniProt P00918). The assay is described as follows: Fluorescence-based thermal shift assay (FTSA). The note with it: for Binding to CA II in words: FTSA.
Experimental: as §1, §2
For assay [11], the target named is CA XII (Homo sapiens, UniProt O43570). The assay is described as follows: Fluorescence-based thermal shift assay (FTSA).
CA XII, sequence (O43570 25-354): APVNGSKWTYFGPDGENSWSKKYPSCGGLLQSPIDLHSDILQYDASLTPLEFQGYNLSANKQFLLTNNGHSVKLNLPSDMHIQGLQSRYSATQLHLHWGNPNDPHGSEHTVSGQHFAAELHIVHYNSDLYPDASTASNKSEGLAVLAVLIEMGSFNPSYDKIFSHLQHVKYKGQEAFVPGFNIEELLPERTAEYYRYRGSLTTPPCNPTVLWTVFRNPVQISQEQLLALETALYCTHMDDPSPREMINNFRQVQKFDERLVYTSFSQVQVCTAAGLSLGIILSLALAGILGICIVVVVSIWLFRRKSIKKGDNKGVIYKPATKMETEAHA
Experimental: as §1, §2
Assay [12] addresses T2, CA IV (Homo sapiens, UniProt P22748). The assay is described as follows: Fluorescence-based thermal shift assay (FTSA).
Experimental: as §1, §2
Assay [13] has as its target T3, CA III (Homo sapiens, UniProt P07451). The assay is described as follows: Fluorescence-based thermal shift assay (FTSA).
Experimental: as §1, §2
Assay [14] addresses T1, CA II. On the set-up: made in house. The note with it: read-out: Literature Ki or Kd, CA II, cited from earlier work.
In assay [15] the target is CA XIII. The conditions noted are these: murine protein, literature value; read-out: Literature Ki or Kd, CA XIII; cited from earlier work.
Assay [16] deals with TSC (thiazide sensitive co-transporter). The arrangement: method as in PMID 10894798. The note with it: in the presence of 2 mM Cl-; cited from earlier work.
Assay [17] addresses CA. On the set-up: method as in doi:10.1016/S0223-5234(97)89083-6. The conditions noted are these: CA isoform not identified; cited from earlier work.
The target in assay [18] is T3, CA III. On the set-up: made in house. The conditions noted are these: literature value; read-out: Literature Ki or Kd, CA III; cited from earlier work.
Assay [19] addresses T1, CA II. The assay is described as follows: Isothermal titration calorimetry (ITC).
The target in assay [20] is T1, CA II. The assay is described as follows: Stopped-flow CO2 hydration activity assay (SFA). The note with it: 25°C, pH 7.5, 20 nM CA II, Morrison equation; read-out: Affinity (Kd) by SFA, CA II. On the set-up: made in house. It counts as biochemical.
Experimental: (§3) The inhibition of CA enzymatic activity by the compounds was measured by the stopped-flow CO2 hydration enzymatic activity assay (SFA) [20]. […] The IC50 measured by SFA were compared to the affinities obtained by FTSA.
(§4) The CO2 spontaneously hydrates in an aqueous solution and the pH decreases. […] The saturated CO2 solution was prepared by bubbling the CO2 gas in MilliQ water at 25°C for 1 h. Experiments were performed at 25°C using 25 mM Hepes buffer containing 50 mM NaCl, pH 7.5, 0–100 μM inhibitor and 0.4% DMSO. […] The rates of CO2 hydration were determined from the slopes of raw curves of initial absorbance change. To determine the fraction of inhibited enzyme, the spontaneous CO2 hydration rate was used as a zero, while the CA-catalyzed reaction rate in the absence of the compound—as a maximum value. Each experiment consisted of 17 compound concentrations, 16 prepared by serial ligand dilution and a last one without the compound. […] The dissociation constants Kd were determined using the Morrison equation as described by Copeland [21].
Assay [21] has as its target T2, CA IV. Description: Stopped-flow CO2 hydration activity assay (SFA). Format: biochemical. The arrangement: made in house. The conditions noted are these: 25°C, pH 7.5, 25 nM CA IV, Morrison equation; read-out: Affinity (Kd) by SFA, CA IV.
Experimental: as §3, §4
Setting [22] is: range over the isoforms, read-out: Kd range over most/many CA isoforms.

T3 sequence (P07451 whole entry): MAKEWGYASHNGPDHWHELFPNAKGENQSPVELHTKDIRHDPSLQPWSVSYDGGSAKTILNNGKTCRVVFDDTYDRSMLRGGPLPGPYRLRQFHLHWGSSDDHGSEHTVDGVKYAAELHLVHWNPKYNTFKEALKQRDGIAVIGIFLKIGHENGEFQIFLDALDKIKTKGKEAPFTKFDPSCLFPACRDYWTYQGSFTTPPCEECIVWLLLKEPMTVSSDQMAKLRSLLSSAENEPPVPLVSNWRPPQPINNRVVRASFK
CA XIII (Homo sapiens, UniProt Q8N1Q1), sequence (Q8N1Q1 whole entry): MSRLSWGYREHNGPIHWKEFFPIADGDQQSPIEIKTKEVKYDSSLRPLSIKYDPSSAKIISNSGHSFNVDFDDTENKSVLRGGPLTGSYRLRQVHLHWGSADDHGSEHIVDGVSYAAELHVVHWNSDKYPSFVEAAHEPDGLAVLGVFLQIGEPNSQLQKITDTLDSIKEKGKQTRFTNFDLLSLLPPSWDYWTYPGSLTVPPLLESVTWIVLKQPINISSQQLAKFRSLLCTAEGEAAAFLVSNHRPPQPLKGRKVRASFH
T2 sequence (P22748 19-312): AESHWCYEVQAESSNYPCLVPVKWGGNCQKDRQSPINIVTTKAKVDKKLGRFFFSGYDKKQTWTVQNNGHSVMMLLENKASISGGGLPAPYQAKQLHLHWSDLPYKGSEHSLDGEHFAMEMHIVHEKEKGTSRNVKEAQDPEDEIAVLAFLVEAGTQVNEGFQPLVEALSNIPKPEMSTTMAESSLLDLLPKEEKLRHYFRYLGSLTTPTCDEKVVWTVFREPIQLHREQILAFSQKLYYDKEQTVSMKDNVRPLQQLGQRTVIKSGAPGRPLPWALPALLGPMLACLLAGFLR
CA VA, sequence (P35218 39-305): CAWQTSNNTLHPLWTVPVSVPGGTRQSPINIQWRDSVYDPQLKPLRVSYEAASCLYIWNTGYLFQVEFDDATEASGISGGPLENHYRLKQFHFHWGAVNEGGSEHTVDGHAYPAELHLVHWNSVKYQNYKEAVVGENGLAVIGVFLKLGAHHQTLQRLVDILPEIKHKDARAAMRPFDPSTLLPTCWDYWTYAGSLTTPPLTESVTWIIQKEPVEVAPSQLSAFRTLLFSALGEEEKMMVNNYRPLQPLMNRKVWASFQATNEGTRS

Take `C[C@@H]1CCC[C@H](C)N1NC(=O)c1ccc(Cl)c(S(N)(=O)=O)c1` [Compound 13, clopamide]: the Kd was 440 nM in assay [1]; 170 nM in assay [2]; 330 nM in assay [3]; 660 nM in assay [4]; 4900 nM in [5]; 170 to 660 nM in assay [6] (setting [22]). In addition, the Kd in [7] stood at 470 nM; in [8] it was 200 nM; in [9], 250 nM; in assay [10], 370 nM; in assay [11] it was 760 nM; in assay [12], 360 nM. In addition, the Kd in [13] was greater than 200000 nM; in [14] (literature value) it was 14600 nM.

For the compound `NS(=O)(=O)c1ccccc1Cl` [Compound 1, 2-chloro-benzenesulfonamide], the Kd in [1] was 320 nM; in [2], 570 nM; in assay [3], 860 nM; in assay [4], 470 nM; in assay [5] it was 270 nM; in assay [7], 2600 nM. For the same compound, the Kd in [8] is 430 nM; in assay [9], 400 nM; in [10], 560 nM; in [11] it was 420 nM; in [12], 1200 nM; in assay [13], greater than 200000 nM. The Kd in assay [14] (literature value) was 1130 nM.

Regarding `NS(=O)(=O)c1cc2c(cc1Cl)NCNS2(=O)=O` [Compound 4, hydrochlorothiazide], the Kd is 2000 nM in assay [1]; 530 nM in assay [2]; 350 nM in assay [3]; 200 nM in assay [4]; roughly 1000 nM in assay [6] (most CA isoforms, read-out: Kd for most CA isoforms); 830 nM in [7]. The Kd was 620 nM in [8]; 870 nM in [9]; 570 nM in [11]; 1600 nM in assay [12]; 200000 nM in assay [13]. The Ki (usually a dissociation constant, usually derived from enzyme kinetics or from competition with a known ligand) was 3880 nM in assay [15] and 2350 nM in assay [17]. The IC50 (as a rule, the concentration that gives 50% inhibition) in [16] is 7000 nM.

For `NS(=O)(=O)c1cc2c(cc1Cl)N=C(CSCc1ccccc1)NS2(=O)=O` [Compound 8, benzthiazide], the Kd in [1] amounted to 90 nM; in assay [2], 0.64 nM; in assay [3], 26 nM; in assay [4], 6.6 nM; in assay [5], 4300 nM; in assay [7] it was 500 nM. Besides, the Kd in [8] worked out at 36 nM; in assay [9] it was 15 nM; in assay [10], 6.4 nM; in assay [11] it was 18 nM; in [12], 43 nM; in assay [13] it was 4500 nM. In [14] (literature value), the Kd was 16.7 nM. For the same compound, the “Increase in affinity of 8 relative to 4” value in assay [6] (CA II and CA XIII, Kd ratio) is on record as “up to 1000 fold”. Besides, the “Binding to CA II in words” value in [10] was “potent ones”. Also, the Ki in assay [17] was 16 nM.

Turning to `NS(=O)(=O)c1cc2c(cc1C(F)(F)F)NC(Cc1ccccc1)NS2(=O)=O` (centres unmarked) [Compound 11, bendroflumethiazide], the Kd is 32000 nM in assay [1]; 910 nM in assay [2]; 210 nM in assay [3]; 360 nM in [4]; 5800 nM in assay [5]; 5300 nM in [7]. The Kd in assay [8] was 130 nM; in [9], 440 nM; in [10], 1700 nM; in [11], 480 nM; in [12] it was 1600 nM; in assay [13], greater than 200000 nM. In addition, the IC50 in [16] is 500 nM.

As to `NS(=O)(=O)c1cc2c(cc1Cl)NC(C(Cl)Cl)NS2(=O)=O` (centres unmarked) [Compound 5, trichloromethiazide], the IC50 in [16] is 500 nM.

For `NS(=O)(=O)c1cc2c(cc1C(F)(F)F)NCNS2(=O)=O` [Compound 10, hydroflumethiazide], the Kd in assay [1] amounted to 40000 nM; in [2], 470 nM; in [3] it was 1600 nM; in assay [4], 910 nM; in assay [5], 50000 nM; in assay [7], 29000 nM. The Kd was 3600 nM in assay [8]; 17000 nM in [9]; 17000 nM in assay [10]; 31000 nM in [11]; 24000 nM in [12]; greater than 200000 nM in assay [13]. For the same compound, the Ki in assay [15] was 15400 nM; in [18] it was 870000 nM. Besides, the “Binding to CA II in words” value in assay [10] is reported as “weak binders”.

For `CN1C(CSCC(F)(F)F)Nc2cc(Cl)c(S(N)(=O)=O)cc2S1(=O)=O` (centres unmarked) [Compound 7, polythiazide], the Kd in assay [1] came out at 5000 nM; in assay [2], 190 nM; in [3], 100 nM; in assay [4], 280 nM; in [5] it was 250 nM; in assay [7] it was 580 nM. In addition, the Kd in [8] is 230 nM; in assay [9], 100 nM; in assay [11], 1600 nM; in assay [12], 330 nM; in assay [13], greater than 200000 nM. In addition, in assay [16], the IC50 is 20 nM.

As to `Cc1ccccc1N1C(=O)c2cc(S(N)(=O)=O)c(Cl)cc2NC1C` (centres unmarked) [Compound 20, metolazone], the Kd in assay [1] was 5800 nM; in assay [2] it was 180 nM; in assay [3], 800 nM; in [4] it was 1400 nM; in assay [5], 130000 nM; in assay [7], 990 nM. Moreover, the Kd is 1300 nM in assay [8]; 2800 nM in assay [10]; 15000 nM in assay [11]; 91 nM in [12]; greater than 200000 nM in [13]. In assay [15], the Ki is 15 nM. In addition, the IC50 in assay [16] was 350 nM.

`NS(=O)(=O)c1cc(C2(O)NC(=O)c3ccccc32)ccc1Cl` (centres unmarked) [Compound 16, Chlorthalidone]: the Kd in [1] came out at 4800 nM; in [2] it was 30 nM; in assay [3], 33 nM; in assay [4], 470 nM; in [7], 110 nM; in assay [8] it was 19 nM. The Kd was 43 nM in assay [9]; 35 nM in assay [10]; 16 nM in assay [12]; 17000 nM in [13]; 11.9 nM in [14]. Moreover, in assay [15], the Ki was 15 nM.

For `NS(=O)(=O)c1cc2c(cc1Cl)N=CNS2(=O)=O` [Compound 3, chlorothiazide], the Kd in [1] is 830 nM; in assay [2], 39 nM; in assay [3], 130 nM; in assay [4] it was 48 nM; in [19], 250 nM; in [7] it was 620 nM. In addition, the Kd in [8] was 250 nM; in assay [9], 70 nM; in assay [10], 370 nM; in assay [20] it was 310 nM; in assay [11] it was 180 nM; in [12], 310 nM. Further, the Kd was 15000 nM in assay [13], 300 nM in assay [21] and 372 nM in [14] (literature value). Also, the Ki in [17] is 460 nM.

With `NS(=O)(=O)c1cc2c(cc1Cl)CN(C1CCCCC1)C2=O` [Compound 17, Clorexolone], the Kd is 42000 nM in assay [1]; 51 nM in assay [2]; 42 nM in [3]; 500 nM in [4]; 1600 nM in assay [5]; 42 to 500 nM in assay [6] (setting [22]). In addition, the Kd was found to be 420 nM in assay [7]; 58 nM in assay [8]; 100 nM in assay [9]; 76 nM in [10]; 89 nM in assay [11]; 250 nM in assay [12]. The Kd in assay [13] is greater than 200000 nM.

Values taken from article PMC8224972, “Thiazide and other Cl-benzenesulfonamide-bearing clinical drug affinities for human carbonic anhydrases” (PLoS ONE, 2021).
